Series [1] in a line: Cytotoxicity against human MT4 cells after 5 days by Cell Titre Glo assay. In kind it is cell-based.
For series [2], the system named is Hepatitis C virus. Put plainly: Antiviral activity against Hepatitis C virus H77 genotype 1a infected in human HuH7 cells assessed as observed antiviral potency after 72 hrs by luciferase reporter gene assay. It is filed as functional, organism-based, Hepacivirus hominis. Particulars: genotype 1a H77, Huh-7, 72 h. (A reporter such as luciferase makes a cellular process visible.)

Series [3] relates to Hepatitis C virus. Put plainly: Antiviral activity against Hepatitis C virus H77 genotype 1a infected in human HuH7 cells assessed as intrinsic antiviral potency after 72 hrs by luciferase reporter gene assay. In kind it is functional, organism-based, Hepacivirus hominis. The note with it: genotype 1a H77, Huh-7, 72 h.
Series [4] is described as follows: Mean residence time in Sprague-Dawley rat at 1 mg/kg, iv. In kind it is ADME, organism-based. Particulars: in vivo. Also on record: dose 1 mg/kg, route intravenous.
The subject of series [5] is Hepatitis C virus. Put plainly: Selectivity ratio of EC50 for HCV genotype 1b harboring NS5B polymerase M423T mutant to EC50 for HCV genotype 1b harboring wild type NS5B polymerase. In kind it is functional, Hepacivirus hominis.
A short description of series [6]: Cytotoxicity against human HuH7 cells after 3 days by Cell Titre Glo assay. In kind it is cell-based, Huh-7.
In series [7] the test system is Hepatitis C virus. Put plainly: Antiviral activity against HCV genotype 1b harboring NS5B polymerase M423T mutant infected in human HuH7-Lunet cells by luciferase reporter gene assay. It is filed as functional, organism-based, Hepacivirus hominis. Particulars: Huh-7.
The nature of series [8]: Fraction unbound in cell culture medium at 2 uM at pH 7.4 by equilibrium dialysis method. It is filed as ADME. Background: Equilibrium dialysis compares concentrations on both sides of a semipermeable membrane.
Series [9] deals with Hepatitis C virus. The series can be described thus: Antiviral activity against HCV infected in human patient assessed as log10 reduction in viral RNA in plasma at 500 mg/kg, qd after 3 days. It is filed as functional, Hepacivirus hominis.
Series [10] is described as follows: Mean residence time in Sprague-Dawley rat at 0.5 mg/kg, iv. The note with it: in vivo. It is filed as ADME, organism-based. Also on record: dose 0.5 mg/kg, route intravenous.
Series [11] has as its system Hepatitis C virus. The series can be described thus: Antiviral activity against HCV genotype 1b harboring wild type NS5B polymerase infected in human HuH7-Lunet cells by luciferase reporter gene assay. It is filed as functional, organism-based, Hepacivirus hominis. The note with it: Huh-7.
The nature of series [12]: Intrinsic cytotoxicity against human MT4 cells after 5 days by Cell Titre Glo assay. In kind it is cell-based.
Series [13] is described as follows: Half life in human patient infected with chronic HCV. In kind it is ADME, organism-based. Particulars: in vivo.
For series [14], the system named is Hepatitis C virus. The series can be described thus: Antiviral activity against Hepatitis C virus H77 genotype 1a infected in human HuH7 cells assessed as plasma adjusted antiviral potency after 72 hrs by luciferase reporter gene assay. It is filed as functional, organism-based, Hepacivirus hominis. The note with it: genotype 1a H77, Huh-7, Plasma.
Series [15] has as its system Hepatitis C virus. The series can be described thus: Antiviral activity against HCV genotype 1b infected in human patient assessed as log10 reduction in viral RNA in plasma at 750 mg/kg, bid after 3 days. It is filed as functional, Hepacivirus hominis.
Series [16] deals with Hepatitis C virus. The series can be described thus: Antiviral activity against Hepatitis C virus Con1 genotype 1b infected in human HuH7 cells after 72 hrs by luciferase reporter gene assay. In kind it is functional, organism-based, Hepacivirus hominis. The note with it: isolate Con1, Huh-7, 72 h.
A short description of series [17]: Lipophilicity, log D of the compound by chromatography. It is filed as physicochemical.
Series [18] can be described thus: Mean residence time in Sprague-Dawley rat at 0.4 mg/kg, iv. In kind it is ADME, organism-based. Details: dose 0.4 mg/kg, route intravenous. The note with it: in vivo.
Series [19] relates to Hepatitis C virus. The series can be described thus: Antiviral activity against HCV genotype 1 infected in human patient assessed as log10 reduction in viral RNA in plasma at 700 mg/kg, bid after 8 days. It is filed as functional, Hepacivirus hominis.

A value given as a limit tells only on which side of the number the result lay.

Usually CC50 stands for the concentration at which the toxic effect on the cells reaches its halfway point. Lower therefore signals greater toxicity to the cells. In general, EC50 refers to the concentration that produces a half-maximal response. For orientation: MRT means the average time that molecules of a dose stay in the body. Broadly, the fraction unbound is free concentration divided by total concentration. The low end stands for extensive binding, the high end for weak binding. Broadly, the half-life is the time in which the quantity being followed falls by half. High values mean slow loss, low ones fast loss. For orientation: chromatographic logD means a lipophilicity value derived from retention on a column.

Take `CC(C)(C)C#Cc1cc(N(C(=O)[C@H]2CC[C@H](C)CC2)[C@H]2CC[C@H](Oc3nccs3)CC2)c(C(=O)O)s1`: the 50% cytotoxic concentration (CC50) at 120 h in series [1] was over 20 µM. For the same compound, the EC50 in the series with Hepatitis C virus [2] came to 0.084 µM; with Hepatitis C virus [3], 0.0015 µM. In series [4], this compound had an MRT of 2.8 h.
As to `CC(C)N(c1cc(C#CC(C)(C)C)sc1C(=O)O)C(=O)[C@H]1CC[C@H](C)CC1`, in the series with Hepatitis C virus [5], the “Ratio EC50” value was found to be 11. In series [1], this compound yielded a CC50 at 120 h of over 20 µM. Also, the results for the EC50 in the series with Hepatitis C virus [3] and with Hepatitis C virus [7] were 0.0055 µM and 0.293 µM, respectively. Besides, the CC50 at 72 h in series [6] was at least 20 µM. The same compound registered a fraction unbound at 2 µM in series [8] of 0.06.
As for `CC1=CC[C@H](C(=O)N(c2cc(C#CC(C)(C)C)sc2C(=O)O)[C@H]2CC[C@](O)(CO[C@H]3CCOC3)CC2)CC1` [RADALBUVIR], the “Ratio EC50” value in the series on Hepatitis C virus [5] is given as 2. Besides, in the series with Hepatitis C virus [9], the FC is 3.6. Besides, the values for the half-maximal cytotoxic concentration (CC50) at 120 h in series [1] and in series [12] were over 20 µM and 12.1 µM, respectively. Moreover, the EC50 in the series with Hepatitis C virus [2] stood at 0.011 µM; with Hepatitis C virus [3], 0.0029 µM; in the series on Hepatitis C virus [7], 0.014 µM; in the series on Hepatitis C virus [11] it was 0.006 µM; in the series on Hepatitis C virus [14], 0.128 µM. For the same compound, the mean residence time (MRT) in [10] is 2.7 h. The half-life in series [13] was 6 h.
For `CC(C)(C)C#Cc1cc(N(C(=O)[C@H]2CC[C@H](C)CC2)[C@H]2CC[C@H](Oc3cccnc3)CC2)c(C(=O)O)s1`, the half-maximal cytotoxic concentration (CC50) at 120 h in [1] was over 20 µM. The 50% effective concentration (EC50) in the series on Hepatitis C virus [2] was 0.128 µM; with Hepatitis C virus [3], 0.0036 µM. In series [4], this compound yielded a mean residence time MRT of 3.4 h. Besides, the unbound share (fraction unbound) at 2 µM in [8] came out at 0.03.
In series [1], `CC(C)(C)C#Cc1cc(N(C(=O)[C@H]2CC[C@H](C)CC2)[C@H]2CC[C@H](O)CC2)c(C(=O)O)s1` [LOMIBUVIR] returned a cytotoxic concentration (CC50) at 120 h of over 20 µM. Also, the half-maximal effective concentration (EC50) worked out at 0.013 µM in the series on Hepatitis C virus [2], 0.0028 µM in the series on Hepatitis C virus [3] and 0.006 µM in the series with Hepatitis C virus [16]. In [6], this compound yielded a half-maximal cytotoxic concentration (CC50) at 72 h of at least 20 µM. Besides, the FC with Hepatitis C virus [15] was determined as 3.7. The free fraction (fraction unbound) at 2 µM in series [8] was found to be 0.19.
Take `CC(C)(C)C#Cc1cc(N(C(=O)[C@H]2CC[C@H](C)CC2)[C@H]2CC[C@](O)(CO[C@H]3CCOC3)CC2)c(C(=O)O)s1`: in the series on Hepatitis C virus [5], the “Ratio EC50” value is reported as 4. Moreover, the 50% cytotoxic concentration (CC50) at 120 h was over 20 µM in series [1] and 8.98 µM in series [12]. Further, the EC50 in the series on Hepatitis C virus [3] is 0.0022 µM; in the series with Hepatitis C virus [7], 0.047 µM; with Hepatitis C virus [11], 0.012 µM; with Hepatitis C virus [14] it was 0.208 µM. Further, the MRT in series [10] came out at 3.8 h. The same compound had a chromatographic logD in series [17] of 2.4.
In the case of `CC(C)(C)C#Cc1cc(N(C(=O)[C@H]2CC[C@H](C)CC2)[C@H]2CC[C@H](Oc3ccc4nccn4n3)CC2)c(C(=O)O)s1`, the cytotoxic concentration (CC50) at 120 h in [1] is over 20 µM; in series [12], 0.133 µM. In addition, the EC50 is 0.192 µM in the series on Hepatitis C virus [2], 0.0013 µM with Hepatitis C virus [3] and 1.13 µM in the series on Hepatitis C virus [14]. In series [18], this compound displayed an MRT of 6.2 h. The compound also registered a chromatographic logD in series [17] of 2.4.
On to `CC(C)(C)C#Cc1cc(N(C(=O)[C@H]2CC[C@H](C)CC2)[C@H]2CC[C@H](Oc3ccccn3)CC2)c(C(=O)O)s1`, for which the CC50 at 120 h in series [1] is over 20 µM; in series [12] it was 0.1 µM. Moreover, the EC50 amounted to 0.297 µM in the series with Hepatitis C virus [2], 0.0025 µM in the series on Hepatitis C virus [3] and 1.05 µM with Hepatitis C virus [14]. The compound further had a mean residence time (MRT) in series [4] of 5 h. The chromatographic logD in [17] worked out at 3.
As to `CCc1cc(CC[C@]2(C3CCCC3)CC(O)=C(Cc3nc4nc(C)cc(C)n4n3)C(=O)O2)cc(CC)n1` [FILIBUVIR], in the series with Hepatitis C virus [19], the FC came to 2.3.
In the case of `CC1=CC[C@H](C(=O)N(c2cc(C#CC(C)(C)C)sc2C(=O)O)C(C)C)CC1`, in the series on Hepatitis C virus [5], the “Ratio EC50” value was 5. Further, the cytotoxic concentration (CC50) at 120 h in series [1] is over 20 µM. Moreover, the EC50 came to 0.031 µM with Hepatitis C virus [2], 0.0022 µM with Hepatitis C virus [3], 0.04 µM in the series on Hepatitis C virus [7] and 0.008 µM in the series with Hepatitis C virus [11]. Moreover, in series [8], the unbound share (fraction unbound) at 2 µM was 0.07.

The values are drawn from ChEMBL document CHEMBL3120092, “Discovery of GS-9669, a thumb site II non-nucleoside inhibitor of NS5B for the treatment of genotype 1 chronic hepatitis C infection” (J Med Chem, 2014).
